In paper PMC9653339, “Revisiting the anticancer properties of phosphane(9-ribosylpurine-6-thiolato)gold(I) complexes and their 9H-purine precursors” (Journal of Biological Inorganic Chemistry, 2022):
Values joined by “and” are separate entries in the source; they are usually repeats but may differ in a detail not shown here. Equal entries are not always repeated.

How the values were obtained:
[1] = tested on: HCT-116^p53−/− (p53 knockout mutant) colon carcinoma cells; assay: MTT cell viability assay, HCT-116 p53-/-; type: cell-based, human; conditions: 72 h
Description: (§1) Cells were seeded in 96-well microtiter plates (Sarstedt) with a cell density of 0.05 × 10^6 cells per ml and 100 µL per well and incubated for 24 h. A dilution series of test compounds was added to the wells, ranging in twelve steps from 100 µM to 5 nM. As a control, equal amounts of DMSO were added. Treated cells were further incubated for 72 h. Then, 12.5 µL per well of MTT solution (0.05% in phosphate-buffered saline (PBS)) was added, followed by another 2 h of incubation. The plates were centrifuged, the medium was discarded and 25 µL per well of SDS solution in DMSO (10% SDS, 0.6% AcOH in DMSO) was added to dissolve the formazan. The plates were incubated for a further hour. Absorbances at 570 nm and 630 nm were measured using a plate reader (Tecan). Background absorbance (630 nm) was subtracted from the formazan signal (570 nm). The resulting absorbance was directly proportional to the amount of viable cells. The control was normalized to 100% viable cells and viability of cells treated with test compounds was calculated accordingly. IC50 values were calculated based on a sigmoidal fit model using GraphPad Prism. Means and SD were calculated from at least four independent experiments.

[2] = tested on: U-87 glioblastoma cells; assay: MTT cell viability assay, U-87; type: cell-based, human; conditions: 72 h
Description: as §1, with “All complexes stable in solution were investigated for their anti-proliferative effect on nine human cancer cell lines, using the MTT-based cell viability assay. Cells” for “Cells”

[3] = tested on: 518A2 melanoma cells; assay: MTT cell viability assay, 518A2; type: cell-based, human
Description: as §1, with “All complexes stable in solution were investigated for their anti-proliferative effect on nine human cancer cell lines, using the MTT-based cell viability assay. Cells” for “Cells”

[4] = tested on: human adult dermal fibroblasts HDFa; assay: MTT cell viability assay, HDFa; type: cell-based; conditions: 72 h, non-malignant fibroblasts
Description: as §1, with “All complexes stable in solution were investigated for their anti-proliferative effect on nine human cancer cell lines, using the MTT-based cell viability assay. Cells” for “Cells”

[5] = tested on: thioredoxin reductase (TrxR); assay: Inhibition of TrxR activity in cell lysates; type: biochemical, human; conditions: lysates of 518A2 melanoma cells
Description: For the measurement of TrxR activity, the TrxR Colorimetric Assay Kit (Cayman Chemicals) was used according to manufacturer’s instructions. 1 × 10^8 518A2 melanoma cells were harvested using a cell scraper, homogenized in 5 mL of cold lysis buffer (50 mM K3PO4, 1 mM EDTA, pH 7.4) on ice and centrifuged for 15 min (4 °C, 10,000×g). The protein concentration of the supernatant was determined via Nanodrop. Then, 10 µL Protease Inhibitor Cocktail Plus (Carl Roth) was added to 1 mL of the cell lysate, which was either used for the assay right away or stored at − 80 °C. Prior to use, the assay buffer was warmed to room temperature and the cell lysate, NADPH (Nicotinamide adenine dinucleotide phosphate), ATM (aurothiomalate) and rat liver TrxR enzyme were thawed and kept on ice After determination of the amount of cell lysate for optimum TrxR activity, alle components were pipetted into the wells of a clear 96-well plate and the enzymatic reactions were initiated by addition of NADPH and 5,5′-dithiobis-(2-nitrobenzoic acid (DTNB). Then, the absorbance at 405 nm was measured once every minute using a plate reader (Tecan) at least ten time points. The TrxR activity was measured in the presence and absence of ATM. The difference between the two results renders the DTNB reduction due to TrxR activity. By plotting the average absorbance values as a function of time, the slope of the linear portion of the curve was obtained, and the change of absorbance (ΔA405) per minute could be determined. The values were corrected for unspecific DTNB reduction and the TrxR activity was calculated using the following formula: TrxR activity [µmol/min/mL] = [corrected ΔA/min (sample)/7.92 mM^−1] × [0.2 mL/0.02 mL] × sample dilution. The assay was conducted at 22 °C. All experiments were performed in triplicate and the solvent-treated negative controls were set to 100%.

[6] = tested on: caspase 3/7 in 518A2 melanoma cells; assay: Caspase 3/7 activation; type: cell-based, human; conditions: 518A2 cells, 10 µM, 6 h
Description: The assay was conducted, following manufacturer’s instructions using the Cell Meter Caspase 3/7 activity apoptosis assay kit (AAT Bioquest). Briefly, 518A2 melanoma cells were seeded in 96-well flat black microtiter plates with a density of 0.22 × 10^6 cells per mL and 90 µL per well. After 24 h of incubation, 10 µL per well of tenfold diluted test compounds was added, and the cells were incubated for a further 6 h. Subsequently, 100 µL per well of Caspase 3/7 substrate working solution was added and incubated for 1 h in the dark at room temperature. The fluorescence was measured using a micro-plate reader (Tecan) at ex/em = 490/525 nm.

[7] = tested on: tubulin; assay: Tubulin polymerisation assay; type: biochemical; conditions: in vitro, turbidity at 340 nm
Description: First, 2 × polymerization buffer was prepared, which consisted of 385 µL Brinkley renaturing buffer 80 (BRB 80), 100 µL glycerol, and 15 µL GTP (100 mM). 50 µL of freshly prepared 2 × polymerization buffer was added to µClear black well plates. Subsequently, 11.1 µL each of a tenfold substance pre-dilution in BRB80 was added. In addition, a combretastatin A-4 positive control was prepared analogously. After rapid addition of 50 µL of tubulin per well, the measurement was started on the plate reader at 340 nm. The plate reader measured at 20 s intervals for at least 120 min until the measurement plateau was reached. For evaluation, OD 340 nm was plotted versus time.

Row | SMILES | IC50 ([1]; Homo sapiens, Colon carcinoma cell) [nM] | IC50 ([2]; Homo sapiens) [nM] | IC50 ([3]; Homo sapiens, 518A2, 72 h) [nM] | IC50 ([4]; Homo sapiens, HDFa) [nM] | Inhibition of TrxR activity [5] | Caspase 3/7 activity [6] | Inhibition of tubulin polymerization [7] | IC50 [2] [nM] | IC50 [1] [nM] | IC50 ([3]; 72 h) | IC50 [4] [nM]
1 | Sc1ncnc2nc[nH]c12 [6-MP, 6-Mercaptopurine, reference compound] | 580 ± 50 | 1400 ± 130 | 11000 ± 1100 | > 50000 | inhibited TrxR | increased caspase activity levels | inhibited tubulin polymerization |  |  |  | 
2 | Nc1nc2nc[nH]c2c(=S)[nH]1 [6-TG, 6-thioguanine, reference compound] |  | 1700 ± 80 | 5200 ± 450 | > 50000 | inhibited TrxR | increased caspase activity levels | inhibited tubulin polymerization |  |  |  | 
3 | CC(=O)OC[C@H]1O[C@@H]([S-])[C@H](OC(C)=O)[C@@H](OC(C)=O)[C@@H]1OC(C)=O.CCP(CC)CC.[Au+] [Auranofin, auranofin] |  |  |  |  | inhibited TrxR | increased caspase activity levels | microtubule-destabilizing agent | 2400 ± 240 |  |  | 
4 | OC[C@H]1O[C@@H](n2cnc3c([S][Au][PH](c4ccccc4)(c4ccccc4)c4ccccc4)ncnc32)[C@H](O)[C@@H]1O [Complex 5, (1,7-Dihydro-6H-purine-9-β-D-ribofuranosyl-6-thiolato) (triphenylphosphane) gold(I)] |  |  |  |  | inhibited TrxR even more strongly than 6-MP, 6-TG and auranofin | increased caspase activity levels | merely slight inhibition of tubulin polymerization | 1700 ± 150 | 300 ± 70 | 2600 ± 250 nM | 36000 ± 1700
5 | Nc1nc([S][Au][PH](c2ccccc2)(c2ccccc2)c2ccccc2)c2ncn([C@@H]3O[C@H](CO)[C@@H](O)[C@H]3O)c2n1 [Complex 6, (2-Amino-1,7-dihydro-6H-purine-9-β-D-ribofuranosyl-6-thiolato) (triphenylphosphane) gold(I)] |  |  |  |  | inhibited TrxR even more strongly than 6-MP, 6-TG and auranofin | even exceeded the effects of the three controls | merely slight inhibition of tubulin polymerization | 1200 ± 120 | 1400 ± 300 | ~3500 nM and 3500 nM | 36000 ± 3000
